In patent US20230365589A1, “NOVEL AMINE DERIVATIVES” (Sumitomo Pharma Co., Ltd., priority 2020, published 2023):
Read-outs that look alike come from different tables or passages of the source.

Columns and labels:
Type in all cases: biochemical
[1] = target: T1, DYRK3 (Homo sapiens, UniProt O43781); assay: Inhibition test on activity of DYRK family, mobility shift assay (MSA): DYRK3
T1 construct: purchased Carna Biosciences, Inc. 04-133
T1 sequence (O43781 1-568 isoform O43781-2): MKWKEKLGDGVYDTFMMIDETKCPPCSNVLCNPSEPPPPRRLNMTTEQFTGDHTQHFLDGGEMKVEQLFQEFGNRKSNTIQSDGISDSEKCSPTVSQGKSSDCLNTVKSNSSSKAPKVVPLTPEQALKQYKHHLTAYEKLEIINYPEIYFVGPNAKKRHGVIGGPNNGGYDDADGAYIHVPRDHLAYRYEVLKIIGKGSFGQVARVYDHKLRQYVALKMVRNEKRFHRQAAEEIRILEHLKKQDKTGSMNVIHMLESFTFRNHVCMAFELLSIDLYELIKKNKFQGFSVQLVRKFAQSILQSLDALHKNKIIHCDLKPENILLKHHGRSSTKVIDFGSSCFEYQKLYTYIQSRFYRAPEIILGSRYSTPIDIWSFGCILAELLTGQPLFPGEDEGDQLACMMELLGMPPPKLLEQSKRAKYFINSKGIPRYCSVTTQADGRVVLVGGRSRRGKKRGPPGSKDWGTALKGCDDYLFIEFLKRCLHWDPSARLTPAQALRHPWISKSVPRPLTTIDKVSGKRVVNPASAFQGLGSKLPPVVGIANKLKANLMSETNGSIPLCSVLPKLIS
How it was run: (§1)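 Mobility-shift readout of FITC-DYRKtide phosphorylation in 20 mM HEPES pH 7.5. The substrate mix held 4 µM peptide, 20 mM MgCl2 and ATP at 100 (1A), 200 (1B), 40 (2) or 20 µM (3). Reaction 1 h at room temperature; IC50 from regression of P/(P+S)-based inhibition vs log concentration.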

[2] = target: T2, DYRK1B (Homo sapiens, UniProt Q9Y463); assay: Inhibition test on activity of DYRK family, mobility shift assay (MSA): DYRK1B
T2 construct: purchased Carna Biosciences, Inc. 04-131
Protocol: [Inhibition Test on Activity of DYRK Family (DYRK1A, DYRK1B, DYRK2, and DYRK3)]
The kinase activity was measured by mobility shift assay (MSA) method using QuickScout Screening Assist™ MSA (commercially available kit manufactured by Carna Biosciences, Inc.). The substrate of the kinase reaction used was an FITC-labeled DYRKtide peptide included in the kit. An assay buffer [20 mM HEPES, 0.01% Triton X-100™, 2 mM dithiothreitol, pH 7.5]was used to create a substrate mixture solution with a substrate (4 μM), MgCl2(20 mM), and ATP (DYRK1A: 100 μM; DYRK1B: 200 μM; DYRK2: 40 μM; and DYRK3: 20 μM). In addition, kinases (DYRK1A: manufactured by Carna Biosciences, Inc., Cat. No. 04-130; DYRK1B: manufactured by Carna Biosciences, Inc., Cat. No. 04-131; DYRK2; manufactured by Carna Biosciences, Inc., Cat. No. 04-132; and DYRK3; manufactured by Carna Biosciences, Inc., Cat. No. 04-133) were diluted with the assay buffer to prepare enzyme solutions (DYRK1A: 0.2 ng/μL; DYRK1B: 0.08 ng/μL; DYRK2: 0.04 ng/μL; and DYRK3: 0.25 ng/μL). The 10 mM solution of the test compound in DMSO was further diluted with DMSO to 10 levels of the concentration (0.00003 mM, 0.0001 mM, 0.0003 mM, 0.001 mM, 0.003 mM, 0.01 mM, 0.03 mM, 0.1 mM, 0.3 mM, and 1 mM), each of which was subjected to 25-fold dilution with the assay buffer to obtain a drug solution (4% DMSO solution). 5 μL of the drug solution or a control solution (4% DMSO-assay buffer), 5 μL of the substrate mixture solution, and 10 μL of the enzyme solution were mixed in the wells of a polypropylene 384-well plate and allowed to react at room temperature for 1 hour, and then the reaction was quenched by adding 60 μL of the termination buffer included in the kit. Subsequently, the quantities of the substrates (S) and the phosphorylated substrate (P) in the reaction solution were measured using LabChip EZ Reader II system (manufactured by Caliper Life Sciences) according to the protocol of the assay kit.
The heights of the peaks of the “substrate” and the “phosphorylated substrate” were expressed as S and P, respectively, and a blank containing the assay buffer instead of the enzyme solution was also measured.
The inhibition rate (%) of the test compound was calculated according to the following equation:
Inhibition rate (%)=(1−(C−A)/(B−A))×100 • wherein, A, B, and C represent P/(P+S) of the blank well, P/(P+S) of the control solution well, and P/(P+S) of the compound-containing well, respectively.
The IC50 value was calculated via a regression analysis of the inhibition rate and the test compound concentration (logarithmic value).
The inhibiting activities of representative compounds of the present invention are shown against DYRK1A, DYRK1B, DYRK2, and DYRK3 in Tables.

[3] = target: T3, DYRK1A (Homo sapiens, UniProt Q13627); assay: Inhibition test on activity of DYRK family, mobility shift assay (MSA): DYRK1A
T3 construct: purchased Carna Biosciences, Inc. 04-130
How it was run: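 Mobility shift assay with recombinant DYRK1A (0.2 ng/μL enzyme solution), FITC-DYRKtide substrate (4 μM in substrate mix), 100 μM ATP in substrate mix, HEPES pH 7.5 buffer with MgCl2; 1 h at room temperature. Phosphorylated vs unphosphorylated peptide peaks quantified; IC50 from regression of inhibition rate against log concentration.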

[4] = target: T4, DYRK2 (Homo sapiens, UniProt Q92630); assay: Inhibition test on activity of DYRK family, mobility shift assay (MSA): DYRK2
T4 construct: purchased Carna Biosciences, Inc. 04-132
T4 sequence (Q92630 74-601 limits assumed): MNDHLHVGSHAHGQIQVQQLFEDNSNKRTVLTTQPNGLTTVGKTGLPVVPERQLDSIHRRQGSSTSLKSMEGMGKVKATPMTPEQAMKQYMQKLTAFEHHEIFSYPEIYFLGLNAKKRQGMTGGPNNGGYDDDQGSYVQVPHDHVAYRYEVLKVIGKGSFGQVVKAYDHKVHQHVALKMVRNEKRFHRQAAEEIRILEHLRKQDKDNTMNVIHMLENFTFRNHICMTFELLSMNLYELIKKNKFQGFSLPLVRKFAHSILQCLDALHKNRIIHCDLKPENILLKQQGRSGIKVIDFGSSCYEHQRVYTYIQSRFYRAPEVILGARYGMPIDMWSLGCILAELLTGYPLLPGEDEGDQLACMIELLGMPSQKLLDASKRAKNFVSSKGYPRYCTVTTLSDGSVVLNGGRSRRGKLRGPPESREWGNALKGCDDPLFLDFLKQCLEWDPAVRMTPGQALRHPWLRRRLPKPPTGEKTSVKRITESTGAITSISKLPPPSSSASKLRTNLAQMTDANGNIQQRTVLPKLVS
How it was run: as §1

[5] = MSA, FITC-labeled DYRKtide peptide, ATP 20 μM, read-out: Inhibitory activity DYRK 3 (IC50 class)
[6] = MSA, FITC-labeled DYRKtide peptide, ATP 200 μM, read-out: Inhibitory activity DYRK 1B (IC50 class)
[7] = MSA, FITC-labeled DYRKtide peptide, ATP 100 μM, read-out: Inhibitory activity DYRK 1A (IC50 class)
[8] = MSA, FITC-labeled DYRKtide peptide, ATP 40 μM, read-out: Inhibitory activity DYRK 2 (IC50 class)

T2 sequence (Q9Y463 whole entry): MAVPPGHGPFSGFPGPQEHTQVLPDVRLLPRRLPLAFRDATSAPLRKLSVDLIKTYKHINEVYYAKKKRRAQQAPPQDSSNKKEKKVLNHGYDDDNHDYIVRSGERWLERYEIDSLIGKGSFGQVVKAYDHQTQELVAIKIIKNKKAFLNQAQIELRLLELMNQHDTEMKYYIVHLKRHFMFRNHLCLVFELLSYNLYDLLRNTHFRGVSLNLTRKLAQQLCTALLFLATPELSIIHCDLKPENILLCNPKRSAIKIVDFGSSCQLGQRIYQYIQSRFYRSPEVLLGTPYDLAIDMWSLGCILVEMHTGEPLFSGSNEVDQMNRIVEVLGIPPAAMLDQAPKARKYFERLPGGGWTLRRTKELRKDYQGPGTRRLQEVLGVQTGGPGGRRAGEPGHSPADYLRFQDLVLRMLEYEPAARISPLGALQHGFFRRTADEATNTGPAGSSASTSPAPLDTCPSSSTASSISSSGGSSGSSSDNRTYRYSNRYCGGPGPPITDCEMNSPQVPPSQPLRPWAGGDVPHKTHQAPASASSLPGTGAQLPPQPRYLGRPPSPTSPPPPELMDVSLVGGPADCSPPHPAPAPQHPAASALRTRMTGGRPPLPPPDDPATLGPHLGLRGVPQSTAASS

Compound | IC50 ([1]; read-out: Inhibitory activity DYRK 3) [nM] | IC50 ([2]; read-out: Inhibitory activity DYRK 1B) [nM] | IC50 ([3]; read-out: Inhibitory activity DYRK 1A) [nM] | IC50 ([4]; read-out: Inhibitory activity DYRK 2) [nM] | IC50 [1, 5] [nM] | IC50 [2, 6] [nM] | IC50 [3, 7] [nM] | IC50 [4, 8] [nM]
N#CCN1CC[C@@H]2NC(=O)N(c3nc4c5c(ccc4s3)OCC5)[C@@H]2C1 (racemic) [Example 100, rac-[(3aR,7aS)-3-(7,8-dihydrofuro[3,2-e][1,3]benzothiazol-2-yl)-2-oxooctahydro-5H-imidazo[4,5-c]pyridin-5-yl]acetonitrile] | ≥ 1000 | 10 to 100 | < 10 | ≥ 1000 |  |  |  | 
CN1CC[C@@H]2NC(=O)N(c3nc4c5c(ccc4s3)OCC5)[C@@H]2C1 (relative stereo) [Example 7, cis-3-(7,8-Dihydrofuro[3,2-e][1,3]benzothiazol-2-yl)-5-methyloctahydro-2H-imidazo[4,5-c]pyridin-2-one] |  |  |  |  | ≥ 1000 | 10 to 100 | 10 to 100 | ≥ 1000
COCCN1CC[C@@H]2NC(=O)N(c3nc4c5c(ccc4s3)OCC5)[C@@H]2C1 (relative stereo) [Example 8, cis-3-(7,8-Dihydrofuro[3,2-e][1,3]benzothiazol-2-yl)-5-(2-methoxyethyl)octahydro-2H-imidazo[4,5-c]pyridin-2-one] |  |  |  |  | ≥ 1000 | 10 to 100 | 10 to 100 | ≥ 1000
CN1CC[C@@H]2[C@H](C1)NC(=O)N2c1nc2c3c(ccc2s1)OCC3 (relative stereo) [Example 9, cis-1-(7,8-dihydrofuro[3,2-e][1,3]benzothiazol-2-yl)-5-methyloctahydro-2H-imidazo[4,5-c]pyridin-2-one] |  |  |  |  | 100 to 1000 | 10 to 100 | 10 to 100 | 100 to 1000
CCN1CC[C@H]2NC(=O)N(c3nc4c5c(ccc4s3)OCC5)[C@H]2C1 (relative stereo) [Example 11, cis-3-(7,8-dihydrofuro[3,2-e][1,3]benzothiazol-2-yl)-5-ethyloctahydro-2H-imidazo[4,5-c]pyridin-2-one] |  |  |  |  | ≥ 1000 | 10 to 100 | 10 to 100 | ≥ 1000
CN1C[C@H]2NC(=O)N(c3nc4c5c(ccc4s3)OCC5)[C@H]2C1 (relative stereo) [Example 14, cis-1-(7,8-dihydrofuro[3,2-e][1,3]benzothiazol-2-yl)-5-methylhexahydropyrrolo[3,4-d]imidazol-2(1H)-one] |  |  |  |  | 10 to 100 | 10 to 100 | 10 to 100 | 100 to 1000
CN1CC[C@H]2NC(=O)N(c3nc4c5c(ccc4s3)OCC5)[C@H]2C1 (single isomer, unassigned) [Example 27] |  |  |  |  | ≥ 1000 | ≥ 1000 | ≥ 1000 | ≥ 1000
CN1CC[C@@H]2NC(=O)N(c3nc4c5c(ccc4s3)OCC5)[C@@H]2C1 (single isomer, unassigned) [Example 28] |  |  |  |  | ≥ 1000 | 10 to 100 | 10 to 100 | ≥ 1000
O=C1N[C@H]2CCN(C3CC3)C[C@H]2N1c1nc2c3c(ccc2s1)OCCO3 (single isomer, unassigned) [Example 34] |  |  |  |  | ≥ 1000 | 10 to 100 | < 10 | ≥ 1000
O=C1N[C@H]2CCN(C3CC3)C[C@H]2N1c1nc2c3c(ccc2s1)OCO3 (single isomer, unassigned) [Example 36] |  |  |  |  | ≥ 1000 | < 10 | < 10 | ≥ 1000
O=C1NC2CNCC2N1c1nc2c3c(ccc2s1)OCC3 (centres unmarked) [Example 3] |  |  |  |  | 100 to 1000 | 100 to 1000 | 100 to 1000 | ≥ 1000
C[C@@H]1NC(=O)N(c2nc3c4c(ccc3s2)OCC4)[C@@H]1CN1CCOCC1 [Example 23, (4S,5R)-1-(7,8-dihydrofuro[3,2-e][1,3]benzothiazol-2-yl)-4-methyl-5-[(morpholin-4-yl)methyl]imidazolidin-2-one] |  |  |  |  | 100 to 1000 | < 10 | < 10 | 100 to 1000
C[C@H]1NC(=O)N(c2nc3c4c(ccc3s2)OCC4)[C@@H]1CN1CCOCC1 [Example 24, (4R,5R)-1-(7,8-dihydrofuro[3,2-e][1,3]benzothiazol-2-yl)-4-methyl-5-[(morpholin-4-yl)methyl]imidazolidin-2-one] |  |  |  |  | ≥ 1000 | 10 to 100 | 10 to 100 | ≥ 1000
C[C@H]1C[C@@H]2[C@H](CO1)NC(=O)N2c1nc2c3c(ccc2s1)OCC3 [Example 38, (3aR,6S,7aR)-1-(7,8-dihydrofuro[3,2-e][1,3]benzothiazol-2-yl)-6-methylhexahydropyrano[3,4-d]imidazol-2(3H)-one] |  |  |  |  | 100 to 1000 | < 10 | < 10 | 100 to 1000
O=C1N[C@H]2CO[C@H](CO)[C@H]2N1c1nc2c3c(ccc2s1)OCC3 [Example 157, (3aR,6S,6aS)-1-(7,8-dihydrofuro[3,2-e][1,3]benzothiazol-2-yl)-6-(hydroxymethyl)tetrahydro-1H-furo[3,4-d]imidazol-2(3H)-one] |  |  |  |  | 100 to 1000 | 10 to 100 |  | 100 to 1000
N#CC[C@H]1OC[C@@H]2NC(=O)N(c3nc4c5c(ccc4s3)OCC5)[C@@H]21 [Example 162, [(3aS,4R,6aR)-3-(7,8-Dihydrofuro[3,2-e][1,3]benzothiazol-2-yl)-2-oxohexahydro-1H-furo[3,4-d]imidazol-4-yl]acetonitrile] |  |  |  |  | 100 to 1000 | 10 to 100 |  | 100 to 1000
